Results as given in ChEMBL document CHEMBL1201862, “PubChem BioAssay data set” (2004).
Active and inactive are the calls of the source.

How the values were obtained:
Caspase-3 = biological target: T1, Caspase-3 (Homo sapiens, UniProt P42574); type: functional;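 note: Dose-response selectivity test against caspase-3 for candidate inhibitors of sentrin-specific proteases (SENPs)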
T1 sequence (P42574 whole entry): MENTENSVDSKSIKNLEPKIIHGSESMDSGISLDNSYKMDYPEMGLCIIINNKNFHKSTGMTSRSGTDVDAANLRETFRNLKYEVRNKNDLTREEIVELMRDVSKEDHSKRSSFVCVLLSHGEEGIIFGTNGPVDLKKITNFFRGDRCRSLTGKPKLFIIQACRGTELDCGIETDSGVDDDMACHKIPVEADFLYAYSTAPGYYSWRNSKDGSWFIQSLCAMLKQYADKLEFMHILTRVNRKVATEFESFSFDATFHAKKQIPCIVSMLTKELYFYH

[1] = biological target: T2, Sentrin-specific protease 7 (Homo sapiens, UniProt Q9BQF6); type: functional;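 note: Luminescence-based dose-response confirmation of ultra-high-throughput screening hits, measuring inhibition of SENP7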
T2 sequence (Q9BQF6 whole entry): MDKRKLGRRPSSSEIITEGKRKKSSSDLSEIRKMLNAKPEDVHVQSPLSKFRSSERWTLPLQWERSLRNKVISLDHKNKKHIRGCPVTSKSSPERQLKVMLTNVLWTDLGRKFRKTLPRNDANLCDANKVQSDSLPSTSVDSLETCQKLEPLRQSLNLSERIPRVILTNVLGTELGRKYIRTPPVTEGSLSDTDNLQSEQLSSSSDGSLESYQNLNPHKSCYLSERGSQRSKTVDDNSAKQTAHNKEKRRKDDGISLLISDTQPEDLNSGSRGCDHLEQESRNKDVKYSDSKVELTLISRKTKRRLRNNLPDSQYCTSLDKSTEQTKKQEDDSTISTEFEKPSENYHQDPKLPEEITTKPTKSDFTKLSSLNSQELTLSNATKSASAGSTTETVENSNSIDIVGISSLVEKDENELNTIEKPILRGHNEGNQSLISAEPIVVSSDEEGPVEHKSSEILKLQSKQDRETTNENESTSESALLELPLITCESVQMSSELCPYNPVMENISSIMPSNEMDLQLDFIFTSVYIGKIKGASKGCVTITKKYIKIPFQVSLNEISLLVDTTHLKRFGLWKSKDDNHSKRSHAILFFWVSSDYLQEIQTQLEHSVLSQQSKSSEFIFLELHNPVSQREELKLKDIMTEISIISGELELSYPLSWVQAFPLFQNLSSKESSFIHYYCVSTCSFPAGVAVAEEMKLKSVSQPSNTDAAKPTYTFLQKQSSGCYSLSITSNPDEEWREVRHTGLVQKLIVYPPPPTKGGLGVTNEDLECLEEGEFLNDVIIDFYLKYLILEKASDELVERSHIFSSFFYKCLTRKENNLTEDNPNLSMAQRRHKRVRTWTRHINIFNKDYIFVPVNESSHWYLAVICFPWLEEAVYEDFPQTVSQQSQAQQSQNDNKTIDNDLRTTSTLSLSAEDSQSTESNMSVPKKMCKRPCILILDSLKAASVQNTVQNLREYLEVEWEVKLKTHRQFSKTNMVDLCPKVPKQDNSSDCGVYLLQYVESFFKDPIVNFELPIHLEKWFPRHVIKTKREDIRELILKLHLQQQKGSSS

[2] = biological target: T3, Sentrin-specific protease 6 (Homo sapiens, UniProt Q9GZR1); type: functional;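 note: Luminescence-based dose-response confirmatory assay of SENP6 inhibition, following up an ultra-high-throughput screen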
T3 sequence (Q9GZR1 whole entry): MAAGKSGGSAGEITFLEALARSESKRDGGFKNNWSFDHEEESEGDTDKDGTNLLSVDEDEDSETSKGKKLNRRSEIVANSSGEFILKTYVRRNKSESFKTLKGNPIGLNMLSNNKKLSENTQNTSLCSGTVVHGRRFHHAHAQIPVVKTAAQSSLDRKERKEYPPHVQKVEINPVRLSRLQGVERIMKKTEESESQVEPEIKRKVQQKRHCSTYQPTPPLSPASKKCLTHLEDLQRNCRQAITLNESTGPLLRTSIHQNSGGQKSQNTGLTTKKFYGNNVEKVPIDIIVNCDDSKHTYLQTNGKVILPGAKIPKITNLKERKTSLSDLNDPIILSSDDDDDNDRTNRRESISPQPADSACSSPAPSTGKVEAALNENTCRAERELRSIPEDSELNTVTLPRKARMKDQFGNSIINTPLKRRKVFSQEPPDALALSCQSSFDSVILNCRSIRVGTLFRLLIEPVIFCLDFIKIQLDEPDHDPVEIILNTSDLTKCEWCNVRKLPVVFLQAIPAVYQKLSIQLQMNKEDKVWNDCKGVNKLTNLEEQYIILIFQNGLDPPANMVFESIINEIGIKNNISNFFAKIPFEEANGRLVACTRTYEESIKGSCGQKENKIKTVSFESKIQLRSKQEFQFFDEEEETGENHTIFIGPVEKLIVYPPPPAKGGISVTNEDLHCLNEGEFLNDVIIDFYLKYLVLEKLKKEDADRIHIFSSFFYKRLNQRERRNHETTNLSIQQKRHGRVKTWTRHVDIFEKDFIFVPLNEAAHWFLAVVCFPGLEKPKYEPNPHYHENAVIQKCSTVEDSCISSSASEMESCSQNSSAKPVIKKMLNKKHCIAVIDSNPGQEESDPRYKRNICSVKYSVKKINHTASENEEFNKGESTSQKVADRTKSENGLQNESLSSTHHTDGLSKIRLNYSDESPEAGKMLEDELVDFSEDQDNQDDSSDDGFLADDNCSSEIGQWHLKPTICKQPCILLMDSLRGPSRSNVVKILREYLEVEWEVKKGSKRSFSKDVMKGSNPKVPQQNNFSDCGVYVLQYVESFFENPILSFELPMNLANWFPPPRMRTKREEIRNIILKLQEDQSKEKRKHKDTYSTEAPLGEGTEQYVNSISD

[3] = biological target: T4, Sentrin-specific protease 8 (Homo sapiens, UniProt Q96LD8); type: functional;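 note: luminescence read-out of SENP8 inhibition, dose-response confirmation following an ultra-high-throughput screen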
T4 sequence (Q96LD8 whole entry): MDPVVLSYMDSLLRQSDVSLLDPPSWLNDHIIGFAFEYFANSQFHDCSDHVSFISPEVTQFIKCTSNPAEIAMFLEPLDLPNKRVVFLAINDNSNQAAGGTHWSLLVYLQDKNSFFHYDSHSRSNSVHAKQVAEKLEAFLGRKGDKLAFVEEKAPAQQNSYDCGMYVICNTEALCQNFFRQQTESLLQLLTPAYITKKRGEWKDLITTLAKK

INS1 = experiment: INS-1E survival protection against cytokine death – cell-based, luminescence, retest, dose response (AID 449756); type: functional; conditions: Rattus norvegicus;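 note: cell death triggered by IL-1 beta plus TNF-alpha plus IFN-gamma mixture; protective hits raise ATP signal compared with cytokine alone wells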
[4] = biological target: T5, Corticotropin-releasing factor receptor 2/Corticotropin-releasing factor-binding protein (Homo sapiens, UniProt P24387+Q13324); experiment: activators of CRF receptor 2 with binding protein – uHTS hits, confirmation (AID 602473); type: functional; conditions: read-out: EC50_Mean
T5 sequence (Q13324 whole entry): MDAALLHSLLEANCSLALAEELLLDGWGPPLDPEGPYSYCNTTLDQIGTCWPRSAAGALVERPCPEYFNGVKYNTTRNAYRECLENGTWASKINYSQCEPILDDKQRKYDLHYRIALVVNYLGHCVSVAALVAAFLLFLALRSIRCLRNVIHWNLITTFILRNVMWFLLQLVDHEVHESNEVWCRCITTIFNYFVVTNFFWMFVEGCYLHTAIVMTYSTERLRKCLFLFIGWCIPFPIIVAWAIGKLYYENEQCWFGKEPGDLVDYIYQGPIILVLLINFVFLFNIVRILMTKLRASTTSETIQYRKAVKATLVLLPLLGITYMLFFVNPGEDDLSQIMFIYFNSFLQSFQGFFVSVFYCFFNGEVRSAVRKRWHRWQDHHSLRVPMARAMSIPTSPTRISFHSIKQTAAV
T5 sequence (P24387 whole entry): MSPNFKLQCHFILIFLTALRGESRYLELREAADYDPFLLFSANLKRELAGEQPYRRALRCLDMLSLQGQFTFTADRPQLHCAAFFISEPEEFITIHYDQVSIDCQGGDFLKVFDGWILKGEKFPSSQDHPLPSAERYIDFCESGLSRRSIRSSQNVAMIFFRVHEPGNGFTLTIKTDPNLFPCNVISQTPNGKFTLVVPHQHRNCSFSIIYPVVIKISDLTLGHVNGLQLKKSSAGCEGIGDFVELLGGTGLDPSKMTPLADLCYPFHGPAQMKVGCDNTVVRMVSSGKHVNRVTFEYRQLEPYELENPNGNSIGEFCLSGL

[5] = biological target: T6, Short transient receptor potential channel 4 (Mus musculus, UniProt Q9QUQ5); experiment: calcium entry via TRPC4 opening agents – cell-based, HEK293 TRPC4/mu-opioid, Fluo-4 calcium, dose response (AID 434937); type: functional
T6 sequence (Q9QUQ5 whole entry): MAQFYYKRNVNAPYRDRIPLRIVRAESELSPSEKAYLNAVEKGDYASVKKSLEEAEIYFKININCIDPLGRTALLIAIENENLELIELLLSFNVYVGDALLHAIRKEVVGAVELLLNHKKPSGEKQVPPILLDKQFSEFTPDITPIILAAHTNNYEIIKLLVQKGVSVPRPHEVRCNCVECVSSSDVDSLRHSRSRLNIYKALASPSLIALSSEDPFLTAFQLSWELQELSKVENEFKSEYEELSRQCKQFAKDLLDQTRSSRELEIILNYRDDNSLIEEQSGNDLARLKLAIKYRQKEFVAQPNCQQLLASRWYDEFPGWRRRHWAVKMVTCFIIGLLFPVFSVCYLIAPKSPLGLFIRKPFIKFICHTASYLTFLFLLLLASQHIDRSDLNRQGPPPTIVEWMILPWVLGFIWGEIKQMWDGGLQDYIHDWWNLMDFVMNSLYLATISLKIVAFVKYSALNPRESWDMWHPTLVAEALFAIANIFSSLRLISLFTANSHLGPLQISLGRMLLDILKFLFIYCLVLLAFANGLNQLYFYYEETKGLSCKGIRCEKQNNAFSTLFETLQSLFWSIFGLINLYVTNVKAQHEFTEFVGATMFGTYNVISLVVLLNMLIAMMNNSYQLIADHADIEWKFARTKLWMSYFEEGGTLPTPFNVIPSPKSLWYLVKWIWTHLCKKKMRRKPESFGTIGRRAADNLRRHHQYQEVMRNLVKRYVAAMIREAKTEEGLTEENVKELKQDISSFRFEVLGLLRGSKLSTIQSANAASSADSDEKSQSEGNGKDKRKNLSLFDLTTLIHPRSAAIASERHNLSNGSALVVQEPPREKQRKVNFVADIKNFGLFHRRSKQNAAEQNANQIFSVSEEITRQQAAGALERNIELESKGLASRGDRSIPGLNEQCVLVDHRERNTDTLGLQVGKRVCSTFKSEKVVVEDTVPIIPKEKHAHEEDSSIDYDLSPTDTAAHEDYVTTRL

[6] = biological target: T7, High affinity choline transporter 1 (Homo sapiens, UniProt Q9GZV3); experiment: human choline transporter blockers, potency – cell-based, 5-point CRC, membrane potential dye, dose response (AID 504840); type: functional
T7 sequence (Q9GZV3 whole entry): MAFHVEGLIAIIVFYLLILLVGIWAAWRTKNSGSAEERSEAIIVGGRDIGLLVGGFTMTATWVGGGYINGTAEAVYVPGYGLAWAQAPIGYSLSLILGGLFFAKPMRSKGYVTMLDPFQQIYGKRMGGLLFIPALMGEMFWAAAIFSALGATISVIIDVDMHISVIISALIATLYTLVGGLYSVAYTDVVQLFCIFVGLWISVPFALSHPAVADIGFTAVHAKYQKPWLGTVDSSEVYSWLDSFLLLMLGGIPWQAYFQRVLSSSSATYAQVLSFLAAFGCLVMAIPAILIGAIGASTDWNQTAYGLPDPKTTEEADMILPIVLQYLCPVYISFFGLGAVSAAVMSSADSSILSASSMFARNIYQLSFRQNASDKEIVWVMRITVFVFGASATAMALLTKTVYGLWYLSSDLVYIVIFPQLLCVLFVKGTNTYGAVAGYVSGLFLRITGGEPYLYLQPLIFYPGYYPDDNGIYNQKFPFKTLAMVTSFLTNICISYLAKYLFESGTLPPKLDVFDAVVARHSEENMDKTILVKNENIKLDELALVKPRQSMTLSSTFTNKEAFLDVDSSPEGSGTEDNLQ

[7] = biological target: Induced myeloid leukemia cell differentiation protein Mcl-1 (Homo sapiens, UniProt Q07820); type: functional
Induced myeloid leukemia cell differentiation protein Mcl-1, sequence (Q07820 whole entry): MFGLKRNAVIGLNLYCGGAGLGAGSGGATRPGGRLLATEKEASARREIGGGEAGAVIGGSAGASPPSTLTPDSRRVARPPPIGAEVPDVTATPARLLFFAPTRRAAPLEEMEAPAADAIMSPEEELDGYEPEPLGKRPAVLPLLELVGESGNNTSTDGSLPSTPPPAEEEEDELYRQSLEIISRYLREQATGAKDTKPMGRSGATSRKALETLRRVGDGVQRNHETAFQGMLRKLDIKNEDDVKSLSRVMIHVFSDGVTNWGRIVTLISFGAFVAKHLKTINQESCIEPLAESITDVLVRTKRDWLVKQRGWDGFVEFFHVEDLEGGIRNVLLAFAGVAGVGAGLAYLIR

[8] = viability of uninfected HEp-2 cells – cell-based, HTS, cytotoxicity control for RSV inhibitor project, dose response (AID 2410); type: functional; conditions: human respiratory syncytial virus
[9] = biological target: Glyceraldehyde-3-phosphate dehydrogenase (Homo sapiens, UniProt P04406)
Glyceraldehyde-3-phosphate dehydrogenase, sequence (P04406 whole entry): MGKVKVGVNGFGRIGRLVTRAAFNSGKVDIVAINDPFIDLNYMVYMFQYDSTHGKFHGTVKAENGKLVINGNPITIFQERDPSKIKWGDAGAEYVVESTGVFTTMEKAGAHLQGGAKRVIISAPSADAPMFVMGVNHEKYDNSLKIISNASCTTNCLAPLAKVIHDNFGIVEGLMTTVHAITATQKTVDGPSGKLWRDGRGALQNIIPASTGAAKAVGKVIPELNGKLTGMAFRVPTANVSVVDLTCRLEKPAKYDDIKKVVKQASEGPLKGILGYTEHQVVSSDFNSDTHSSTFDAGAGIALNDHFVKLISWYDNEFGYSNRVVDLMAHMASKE

Vero = experiment: cells; type: functional; conditions: Chlorocebus sabaeus

| Structure (SMILES) | IC50 (Caspase-3) | IC50 [1] | IC50 [2] | IC50 [3] | further results |
| --- | --- | --- | --- | --- | --- |
| O=C(Nc1ccc(-c2noc(-c3cccs3)n2)cc1)c1cccnc1 | 54.8 µM (active) | 7.2 µM (active) | 76.2 µM (active) | > 100 µM (inactive) | AC50 (INS1): 6.36 µM (active) |
| Cn1c2ccccc2c(=O)c2c(=O)n(C3CCCCCC3)c(C3CCCCC3)nc21 | – | – | – | – | EC50 [4]: 4.04 µM (active) |
| COc1ccc(NC(=O)c2csc3c2CCCC3)cc1 | 19.2 µM (active) | 7.25 µM (active) | > 100 µM (inactive) | > 100 µM (inactive) | – |
| COc1cc(OC)cc(C(=O)N[C@H](C(=O)OCC(=O)NC(C)c2ccccc2)C(C)C)c1 (stereo not given in full) | – | – | – | – | EC50 [5]: 6.68 µM (active); EC50 [4]: 16.4 µM (active) |
| Cn1c(=O)[nH]c2nnc(-c3ccc(Cl)c(Cl)c3)nc2c1=O | – | – | – | – | IC50 [6]: 11.2 µM (active) |
| C#CC[N+]1(CC#Cc2cccc(C)c2)CCCCC1 | – | – | – | – | IC50 [6]: 12 µM (active) |
| O=c1c2ccccc2nc(-c2ccco2)n1-c1cccnc1 | – | – | – | – | IC50 [7]: < 0.4 µM (not active) |
| CCO/C=C1\C(=O)N(c2ccccc2)C(=O)c2ccccc21 | 6.63 µM (active) | 36.9 µM (active) | 16.6 µM (active) | 50.7 µM (active) | – |
| C=CCn1c2ccccc2c(=O)c2cc(C#Cc3ccccn3)ccc21 | 17.5 µM (active) | 5.93 µM (active) | 14.1 µM (active) | 20.8 µM (active) | CC50 [8]: 25.1 µM (active) |
| CCN1CCN(C2=C(Cl)C(=O)N(c3ccc(C(F)(F)F)cc3)C2=O)CC1 | – | – | – | – | IC50 [9]: > 50 µM (inconclusive) |
| CSc1ccc(/C=C/C(=O)c2ccc(O)cc2)cc1 | 19.9 µM (active) | 4.77 µM (active) | 9.4 µM (active) | 13.4 µM (active) | CC50 (Vero): 23.8 µM (active) |
